Calls of active or inactive are those of the source. No cut-off for these calls is given here.

These results are taken from ChEMBL document CHEMBL1142974, “Design, synthesis, and evaluation of the antiproliferative activity of a series of novel fused xanthenone aminoderivatives in human breast cancer cells” (J Med Chem, 2007).

Assay [1] concerns MDA-MB-231. Put plainly: Growth inhibition of human MDA-MB-231 cells at 100 uM by WST-1 method after 72 hrs. The format is functional, cell-based. A general note: Formazan colour is commonly taken as a measure of viable cells.
In assay [2] the test system is MDA-MB-231. Put plainly: Antiproliferative activity against human MDA-MB-231 cells by WST-1 method after 72 hrs. The format is functional, cell-based. The conditions noted are these: MDA-MB-231, 72 h.

On to `CN(C)CCNc1cc2nc[nH]c2c2oc3ccccc3c(=O)c12`, for which the result in the assay on MDA-MB-231 [1] was Active.
As for `CCN(CC)CCNc1cc2nc[nH]c2c2oc3ccccc3c(=O)c12`, in the assay on MDA-MB-231 [1], the result was Active.
Broadly, the IC50 is the point on the concentration scale where inhibition reaches its midpoint. In turn, `CCN(CC)CCn1nc2c3c(c4[nH]c(C)nc4cc31)Oc1ccccc1-2` returned an IC50 with MDA-MB-231 [2] of 18 µM.
In the case of `CCN(CC)CCn1nc2c3c(c4[nH]cnc4cc31)Oc1ccccc1-2`, the IC50 in the assay with MDA-MB-231 [2] was 8.5 µM.
In the case of `Cc1nc2cc3c4c(nn3CCN(C)C)-c3ccccc3Oc4c2[nH]1`, the IC50 in the assay on MDA-MB-231 [2] came out at 17 µM.
For `CN(C)CCn1nc2c3c(c4[nH]cnc4cc31)Oc1ccccc1-2`, in the assay with MDA-MB-231 [2], half-maximal inhibition (IC50) was put at 6.5 µM. This IC50 is about 2.6-fold lower than that of the compound before.
